The values below are quoted from earlier work in US20100062066A1, “Formulations of Tetrahydropyridine Antiplatelet Agents for Parenteral or Oral Administration” (Acusphere, Inc, priority 2006, published 2010).

For the series, the system named is platelet aggregation. To be noted: background statement on clopidogrel enantiomers.

Turning to `COC(=O)C(c1ccccc1Cl)N1CCc2sccc2C1` (single isomer, unassigned) [R-enantiomer], the anti-aggregation activity entry is reported as “does not exhibit any anti-aggregation activity”.
Regarding `COC(=O)[C@H](c1ccccc1Cl)N1CCc2sccc2C1` (single isomer, unassigned; enantiomer 2) [S-enantiomer, 2-(2-chlorophenyl)-2-(2,4,5,6,7,7a-tetrahydrothieno[3,2-c]pyridine)-5-yl-acetic acetic acid methyl ester], the anti-aggregation activity result was “biologically active”.
